Where only a bound is given, the exact number is not on record here.

A short description of data set [1]: Metabolic stability in 10% fetal bovine serum assessed as compound remaining at 37 degC by RP-HPLC method. The format is ADME, cell-free, Bos taurus. As to conditions: cattle.
A short description of data set [2]: Chemical stability in CD3CN up to 7 days by 31P NMR method. The format is physicochemical. The conditions noted are these: read-out: Stability.

Turning to `Cc1cn([C@H]2C[C@H](OP(=O)(O)OC[C@H]3O[C@@H](n4cc(C)c(=O)[nH]c4=O)C[C@@H]3OP(=O)(O)OC[C@H]3O[C@@H](n4cc(C)c(=O)[nH]c4=O)C[C@@H]3OP(=O)(O)OC[C@H]3O[C@@H](n4cc(C)c(=O)[nH]c4=O)C[C@@H]3OP(=O)(O)OC[C@H]3O[C@@H](n4cc(C)c(=O)[nH]c4=O)C[C@@H]3OP(=O)(O)OC[C@H]3O[C@@H](n4cc(C)c(=O)[nH]c4=O)C[C@@H]3OP(=O)(O)OC[C@H]3O[C@@H](n4cc(C)c(=O)[nH]c4=O)C[C@@H]3OP(=O)(O)OC[C@H]3O[C@@H](n4cc(C)c(=O)[nH]c4=O)C[C@@H]3OP(=O)(O)OC[C@H]3O[C@@H](n4cc(C)c(=O)[nH]c4=O)C[C@@H]3OP(=O)(O)OC[C@H]3O[C@@H](n4cc(C)c(=O)[nH]c4=O)C[C@@H]3O)[C@@H](CO)O2)c(=O)[nH]c1=O`, the half-life in data set [1] is under 1.5 h.

For `Cc1cn([C@H]2C[C@H](OP(=O)(O)OC[C@H]3O[C@@H](n4cc(C)c(=O)[nH]c4=O)C[C@@H]3OP(=O)(O)OC[C@H]3O[C@@H](n4cc(C)c(=O)[nH]c4=O)C[C@@H]3OP(=O)(O)OC[C@H]3O[C@@H](n4cc(C)c(=O)[nH]c4=O)C[C@@H]3OP(=O)(O)OC[C@H]3O[C@@H](n4cc(C)c(=O)[nH]c4=O)C[C@@H]3OP(=O)(O)OC[C@H]3O[C@@H](n4cc(C)c(=O)[nH]c4=O)C[C@@H]3OP(=O)(O)OC[C@H]3O[C@@H](n4cc(C)c(=O)[nH]c4=O)C[C@@H]3OP(=O)(O)OC[C@H]3O[C@@H](n4cc(C)c(=O)[nH]c4=O)C[C@@H]3OP(=O)(O)OC[C@H]3O[C@@H](n4cc(C)c(=O)[nH]c4=O)C[C@@H]3OP(=O)(OC[C@H]3O[C@@H](n4cc(C)c(=O)[nH]c4=O)C[C@@H]3O)O[C@@H]3CSSC[C@H]3OCc3ccccc3)[C@@H](CO)O2)c(=O)[nH]c1=O` (stereo partly drawn), the half-life in data set [1] is over 23.3 h.

With `COc1ccc(C(OC[C@H]2O[C@@H](n3cc(C)c(=O)[nH]c3=O)C[C@@H]2OP(OC2CSSCC2OCc2ccccc2)N(C(C)C)C(C)C)(c2ccccc2)c2ccc(OC)cc2)cc1` (stereo partly drawn), in data set [2], the remaining at 168 h was determined as 95%.

Broadly, the half-life is the time in which the quantity being followed falls by half.

The values above are taken from ChEMBL document CHEMBL4020784, “Syntheses of prodrug-type phosphotriester oligonucleotides responsive to intracellular reducing environment for improvement of cell membrane permeability and nuclease resistance” (Bioorg Med Chem Lett, 2017).
